Experimental data: BindingDB's records for doi:10.1007/s00210-003-0860-y (UniversitÄT WÜRzburg, 2004)
Counter-ions that a name gives are not always drawn.

Columns and labels:
[1] = molecular target: Beta-3 adrenergic receptor (Homo sapiens, UniProt P13945)
[2] = molecular target: Beta-2 adrenergic receptor (Homo sapiens, UniProt P07550)
Sequence of Beta-2 adrenergic receptor (P07550 whole entry): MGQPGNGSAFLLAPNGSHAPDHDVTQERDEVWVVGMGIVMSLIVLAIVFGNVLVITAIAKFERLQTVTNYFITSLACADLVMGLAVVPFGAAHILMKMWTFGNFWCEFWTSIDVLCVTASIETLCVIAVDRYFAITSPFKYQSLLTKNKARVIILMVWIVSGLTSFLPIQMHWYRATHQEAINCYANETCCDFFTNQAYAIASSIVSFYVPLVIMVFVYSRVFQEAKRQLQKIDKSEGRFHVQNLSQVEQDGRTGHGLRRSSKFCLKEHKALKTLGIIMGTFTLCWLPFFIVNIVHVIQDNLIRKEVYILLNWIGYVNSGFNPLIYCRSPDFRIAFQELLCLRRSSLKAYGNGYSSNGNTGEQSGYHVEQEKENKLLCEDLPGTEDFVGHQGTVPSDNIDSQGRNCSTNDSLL

Sequence of Beta-3 adrenergic receptor (P13945 whole entry): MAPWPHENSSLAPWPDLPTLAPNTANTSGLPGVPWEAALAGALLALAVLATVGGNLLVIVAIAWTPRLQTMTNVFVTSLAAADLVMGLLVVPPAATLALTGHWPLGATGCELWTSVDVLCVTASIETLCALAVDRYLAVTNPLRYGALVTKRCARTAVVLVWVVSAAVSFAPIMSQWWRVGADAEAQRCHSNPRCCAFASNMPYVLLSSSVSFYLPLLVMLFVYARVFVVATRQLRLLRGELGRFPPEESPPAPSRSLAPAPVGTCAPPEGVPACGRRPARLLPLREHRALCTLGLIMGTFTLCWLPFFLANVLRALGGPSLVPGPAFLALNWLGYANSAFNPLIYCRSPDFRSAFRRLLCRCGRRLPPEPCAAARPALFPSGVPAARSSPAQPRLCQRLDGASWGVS

| Compound | Ki [1] | Ki [2] |
| --- | --- | --- |
| CC(Cc1ccc(OCC(=O)O)cc1)NCC(O)c1cccc(Cl)c1 (centres undefined) [CAS_2437] | – | 9170 nM |
| CCc1ccccc1OC[C@@H](O)CN[C@H]1CCCc2ccccc21 [CAS_174689-39-5] | 122 nM | 61.9 nM |
| CNCC(O)c1ccc(O)c(O)c1 (centres undefined) [EPINEPHRINE] | > 10000 nM | – |
| OCc1cc(C(O)CNCCCCCCOCCCCc2ccccc2)ccc1O (centres undefined) [salmeterol xinafoate] | 7180 nM | – |

The remaining lines, values ahead:

| Ki [1] | Ki [2] | Compound |
| --- | --- | --- |
| > 10000 nM | – | CC(C)(C)NCC(O)c1cc(O)cc(O)c1 (racemic) [Terbutaline,(+/-)] |
| 77.1 nM | – | CC(C)(C)NCC(O)COc1cccc2[nH]c(=O)[nH]c12 (centres undefined) [4-[3-(tert-butylamino)-2-hydroxypropoxy]-2,3-dihydro-1H-1,3-benzodiazol-2-one hydrochloride] |
| 3990 nM | 1290 nM | CC(C)(C)NCC(O)c1cc(Br)no1 (centres undefined) [NSC_71149] |
